Key:
Type in all cases: cell-based
[1] = system: Streptococcus mutans biofilms; test: 1 day biofilm test with Azithromycine, Indocyanine Green and light; settings: 15 μg with Indocyanine Green
Method: A further series of tests was carried out for Streptococcus mutans biofilms using Azithromycine (15 μg) and Indocyanine Green using light at 100 J/cm^2. For 1 day biofilms, the CFU was on an average <1 after treatment with dual light of 405 nm and 810 nm, respectively (at ratios of 3:1 to 1:3), whereas for either 405 nm or 810 nm wavelength light alone, the CFU was on an average below 100 after 1 day. For Azithromycine and Indocyanine Green without light, the CFU was about 1E06 to 1E07 after 1 day.

[2] = Antibiotic susceptibility test (doxycycline disc on petri dishes, with or without light)
Description: Antibiotic Susceptibility Test Each test was repeated 3 times with identical treatment and growth parameters. The calculated CFU:s for 100 J/cm^2 treated doxycycline disc results are shown in table 1 and representing image of difference between treated and non-treated doxy petri dish are shown in FIG. 1. […] Starting from the left is the doxycycline inhibition effect in dark, in the middle the resulting petri dish with 405 nm and 810 nm exposure and on the right side the petri dish with 405 nm excitation is shown.

[3] = system: planktonic Streptococcus mutans; test: Planktonic bacteria test, light activation of doxycycline
Description: FIG. 2 is a bar chart showing bacteria growth of Streptococcus mutans for four different treatments, illustrating the effect of light activation of doxycycline against planktonic Streptococcus mutans; FIG. 2 is a bar chart showing light activation of doxycycline at 405 nm in a planktonic bacteria test. […] 100 J of antibacterial blue light had minor reduction in CFU compared to non-exposed control.

[4] = system: Streptococcus mutans 4 day biofilm; test: 4-day biofilm effectivity test, colony formation (CFU)
Description: FIG. 3 is a bar chart showing a comparison of the doxycycline effect with light excitations of 405 nm, dual-light (810 nm & 405 nm) and 370 nm to Streptococcus mutans colony formation in 4 day biofilm model; FIG. 4 is a bar chart showing the doxycycline effect against Streptococcus mutans 4 day biofilm for light excitation using a combination of light of 405 nm and 810 nm (“dual-light”) together with an ICG sensitizer, compared with light of 810 nm together with an ICG sensitizer (“doxy+aPDT”) and with 405 nm light without ICG sensitizer (“405”). A control of doxycycline is given as a reference; and […] is a bar chart showing a comparison of doxycycline effect with light excitations of […] on Streptococcus mutans colony formation in a 4-day biofilm effectivity test. FIG. 4 gives the CFU:s for Streptococcus mutans colonies on petri dishes after 4-day treatments, repeated 6 times with identical treatment and growth parameters, for four series of tests. The first (non-existent) bar represents the CFU:s for S. mutans colonies doxycycline which had been treated with doxycycline (30 μg) and dual light of 405 nm and 810 nm together with Indocyanine Green. The energy intensity of the light was 100 J/cm^2. […]

## CC[C@H]1OC(=O)[C@H](C)[C@@H](O[C@H]2C[C@@](C)(OC)[C@@H](O)[C@H](C)O2)[C@H](C)[C@@H](O[C@@H]2O[C@H](C)C[C@H](N(C)C)[C@H]2O)[C@](C)(O)C[C@@H](C)CN(C)[C@H](C)[C@@H](O)[C@]1(C)O [Azithromycine]
[1]; 405 nm light alone, 100 J/cm^2, 1 day
  CFU on an average: below 100
[1]; 810 nm light alone, 100 J/cm^2, 1 day
  CFU on an average: below 100
[1]; dual light 405 nm and 810 nm (ratios 3:1 to 1:3), 100 J/cm^2, 1 day biofilms
  CFU on an average: < 1

## C[C@H]1c2cccc(O)c2C(=O)C2=C(O)[C@]3(O)C(=O)C(C(N)=O)=C(O)[C@@H](N(C)C)[C@@H]3[C@@H](O)[C@@H]21 [doxycycline]
[2]; 44 J/cm^2 405 nm + 60 J/cm^2 810 nm
  Regression diameter: 29,66666667
[2]; 83 J/cm^2 405 nm
  Regression diameter: 30,33333
[2]; no light, disc test, repeated 3 times
  Regression diameter: 26,33333
[3]; doxycycline without light
  bacteria growth: ≥ 10^7 CFU
[3]; light activated at 405 nm
  bactericidal effect, bacteria killing: over 3 log
[4]; 370 nm light
  improvement of antibacterial light effect with the addition of doxycycline: over 1.5 log
[4]; 405 nm light
  improvement of antibacterial light effect with the addition of doxycycline: over 1.5 log

From US12161719B2, “Method of enhancing the antimicrobial action of systemically administered antibiotics” (Koite Health Oy, priority 2019, dated 2024)
